According to ChEMBL document CHEMBL6134837, “Synergistic Cancer Therapy: An NIR-Activated Methylene Blue-Nitrogen Mustard Prodrug for Combined Chemotherapy and Photodynamic Therapy” (J Med Chem, 2025):
pIC50: −log10 of the molar value. The source made the active and inactive calls. The calls are words filed in the database; no cut-off is given here.

Tests used:
B16-F10 [1] = experiment: Induction of DNA damage in mouse B16-F10 cells assessed as green fluorescence in nuclei at 10 uM measured after irradiation with […] light by gamma-H2AX based assay; type: functional, cell-based
B16-F10 [2] = experiment: Cytotoxicity against mouse B16-F10 cells assessed as cell viability measured at 10 uM after cells irradiated with 100 mW/cm^2, 660 nm light irradiation for 15 mins followed by measured after 48 hrs incubation by MTT assay relative to control; type: functional; conditions: B16-F10, light or radiation study, read-out: Activity
B16-F10 [3] = experiment: Induction of apoptosis in mouse B16-F10 cells assessed as necrotic cells at 10 uM measured after 8 hrs followed by irradiated (100 mW/cm^2) for 15 mins by annexin VFITC (AV)/propidium iodide (PI) based flow cytometry (reference value: 1.61%); type: functional
B16-F10 [4] = experiment: Induction of apoptosis in mouse B16-F10 cells assessed as early apoptotic cells at 10 uM measured after 8 hrs followed by irradiated (100 mW/cm^2) for 15 mins by annexin VFITC (AV)/propidium iodide (PI) based flow cytometry (reference value: 1.02%); type: functional
B16-F10 [5] = experiment: Induction of apoptosis in mouse B16-F10 cells assessed as viable cells at 10 uM measured after 8 hrs followed by irradiated (100 mW/cm^2) for 15 mins by annexin VFITC (AV)/propidium iodide (PI) based flow cytometry (reference value: 92.2%); type: functional; conditions: B16-F10, light or radiation study, read-out: Activity
B16-F10 [6] = experiment: Induction of apoptosis in mouse B16-F10 cells assessed as late apoptotic cells at 10 uM measured after 8 hrs followed by irradiated (100 mW/cm^2) for 15 mins by annexin VFITC (AV)/propidium iodide (PI) based flow cytometry (reference value: 5.20%); type: functional
[7] = Photoactivation of the compound assessed as release of methylene blue at 10 uM measured after 21 mins under 660 nm laser irradiation; conditions: 0.35 h
B16-F10 [8] = experiment: Cytotoxicity against mouse B16-F10 cells assessed as decrease in green fluorescence at 1 to 10 uM measured after cells irradiated with 100 mW/cm^2, 660 nm light irradiation for 15 mins by Calcein-AM/PI staining based photodynamic therapy (PDT) assay; type: functional, cell-based; conditions: dose 1-10 µM
[9] = Toxicity in BALB/c mouse transplanted with mouse B16-F10 cells assessed as body weight change measured at 200 uM administered via intratumoural injection measured after 7 days; conditions: in vivo, other, 168 h, route it(Intratumoral), time 7 day
[10] = Stability of the compound measured after 7 days under dark condition; type: physicochemical; conditions: 168 h; time 7 day
B16-F10 [11] = experiment: In vivo antitumor activity against mouse B16-F10 cells transplanted in BALB/c mouse model assessed as inhibition of tumor cells in tumor slice at 200 uM administered via intratumoural injection followed by irradiated with 660 nm laser irradiation measured for 7 days by H and E staining based analysis; type: functional, organism-based; conditions: route it(Intratumoral), time 7.0 day
[12] = Toxicity in BALB/c mouse transplanted with mouse B16-F10 cells assessed as kidney damage measured at 200 uM administered via intratumoural injection measured after 7 days by H and E staining based analysis; type: tissue-based; conditions: in vivo, other, 168 h, route it(Intratumoral), time 7 day
B16-F10 [13] = experiment: Induction of DNA damage in mouse B16-F10 cells assessed as green fluorescence in nuclei measured in absence light at 10 uM by gamma-H2AX based assay; type: functional, cell-based
[14] = Photoactivation of the compound assessed as release of methylene blue by measuring photolysis half-life at 10 uM under 660 nm laser irradiation
B16-F10 [15] = experiment: In vivo antitumor activity against mouse B16-F10 cells transplanted in BALB/c mouse model assessed as tumor growth inhibition at 200 uM administered via intratumoural injection followed by irradiated with 660 nm laser irradiation measured on day 1; type: functional, organism-based; conditions: route it(Intratumoral), time 1.0 day
[16] = Induction of ROS generation in DCFH solution assessed as fold increase in fluorescent intensity using 525 nm pre-irradiated compound relative to non-illuminated condition; type: functional
[17] = Toxicity in BALB/c mouse transplanted with mouse B16-F10 cells assessed as heart damage measured at 200 uM administered via intratumoural injection measured after 7 days by H and E staining based analysis; type: tissue-based; conditions: in vivo, other, 168 h, route it(Intratumoral), time 7 day
[18] = Induction of ROS generation assessed as superoxide anion production by measuring increase in fluorescent intensity of DHR123 using 526 nm (using non pre-irradiated condition); type: functional
[19] = Induction of ROS generation assessed as superoxide anion production by measuring fold increase in fluorescent intensity of DHR123 using 526 nm pre-irradiated compound relative to non-illuminated condition; type: functional
B16-F10 [20] = experiment: Cytotoxicity against mouse B16-F10 cells assessed as cell viability at 10 uM measured absence of irradiation by Calcein-AM/PI staining based assay; type: toxicity; conditions: b16-f10, 10 µM
[21] = Induction of hydroxyl radicals generation after irradiation by coumarin-3-carboxylic acid (3-CCA) assay; type: functional
[22] = Induction of ROS generation assessed as increase in singlet oxygen production by measuring reduction in ABDA absorption; type: functional
[23] = Drug uptake in BALB/c mouse transplanted with mouse B16-F10 cells assessed as increase in fluorescence intensity at tumor site at 200 uM administered via intratumoural injection followed by irradiated with 660 nm laser measured for 3 to 21 mins by imaging assay; type: ADME; conditions: in vivo, other, time 3-21 min, route it(Intratumoral)
B16-F10 [24] = experiment: Induction of apoptosis in mouse B16-F10 cells assessed as viable cells at 10 uM measured after 8 hrs by annexin VFITC (AV)/propidium iodide (PI) based flow cytometry (reference value: 92.2%); type: functional; conditions: read-out: Activity
B16-F10 [25] = experiment: Cytotoxicity against mouse B16-F10 cells assessed as cell death rate measured at 2 uM irradiated with 100 mW/cm^2, 660 nm light for 15 mins and measured after 48 hrs of incubation by MTT assay relative to control; type: functional
[26] = Induction of ROS generation in DCFH solution assessed as increase in fluorescent intensity measured under laser irradiation 660 nm for continuous 9 secs; type: functional; conditions: time 9.0 sec
B16-F10 [27] = experiment: Cytotoxicity against mouse B16-F10 cells assessed as cell viability measured irradiated with 100 mW/cm^2, 660 nm light for 15 mins and measured after 48 hrs incubation by MTT assay; type: functional, cell-based; conditions: B16-F10, light or radiation study
[28] = Toxicity in BALB/c mouse transplanted with mouse B16-F10 cells assessed as liver damage measured at 200 uM administered via intratumoural injection measured after 7 days by H and E staining based analysis; type: tissue-based; conditions: in vivo, other, 168 h, route it(Intratumoral), time 7 day
[29] = Hemolysis in healthy mouse RBC assessed as hemolysis rate at 1 to 256 uM measured after 2 hrs incubation by microplate reader; type: toxicity, cell-based, Erythrocyte; conditions: mouse red blood cells, dose 1-256 µM, read-out: Activity
[30] = Toxicity in BALB/c mouse transplanted with mouse B16-F10 cells assessed as lung damage measured at 200 uM administered via intratumoural injection measured after 7 days by H and E staining based analysis; type: tissue-based; conditions: in vivo, other, 168 h, route it(Intratumoral), time 7 day
B16-F10 [31] = experiment: Induction of ROS generation in mouse B16-F10 cells assessed as increase in intracellular superoxide anion by measuring red fluorescence in nucleus at 10 uM measured co-incubated with dihydroethidium (DHE) followed by irradiated for 3 to 15 mins; type: functional, cell-based; conditions: time 3-15 min
[32] = Toxicity in BALB/c mouse transplanted with mouse B16-F10 cells assessed as spleen damage measured at 200 uM administered via intratumoural injection measured after 7 days by H and E staining based analysis; type: tissue-based; conditions: in vivo, other, 168 h, route it(Intratumoral), time 7 day
B16-F10 [33] = experiment: Induction of apoptosis in mouse B16-F10 cells assessed as necrotic cells at 10 uM measured after 8 hrs by annexin VFITC (AV)/propidium iodide (PI) based flow cytometry (reference value: 1.61%); type: functional
B16-F10 [34] = experiment: Cytotoxicity against mouse B16-F10 cells assessed as cell viability at 1 to 10 uM measured after 48 hrs incubation under dark by MTT assay; type: toxicity, cell-based; conditions: b16-f10, 48 h, dose 1-10 µM
[35] = Induction of ROS generation in DCFH solution assessed as increase in fluorescent intensity using 525 nm pre-irradiated compound; type: functional
B16-F10 [36] = experiment: Induction of apoptosis in mouse B16-F10 cells assessed as early apoptotic cells at 10 uM measured after 8 hrs by annexin VFITC (AV)/propidium iodide (PI) based flow cytometry (reference value: 1.02%); type: functional
B16-F10 [37] = experiment: Induction of ROS generation in mouse B16-F10 cells assessed as fluorescence intensity at 10 uM measured co-incubated with DCFH-DA followed by irradiated for 3 to 15 mins; type: functional, cell-based; conditions: time 3-15 min
[38] = Induction of ROS generation assessed as increase in singlet oxygen production using pre-irradiated compound by measuring reduction in ABDA absorption at 378 nm measured for 90 secs; type: functional; design: scale not given: the % may be the effect or the level left; conditions: time 90.0 sec
[39] = Photoactivation of the compound assessed as fluorescence changes at 10 uM measured after 21 mins under 660 nm laser irradiation relative to under dark condition; conditions: 0.35 h
[40] = Induction of hydroxyl radicals generation before irradiation by coumarin-3-carboxylic acid (3-CCA) assay; type: functional
B16-F10 [41] = experiment: Induction of DNA damage in mouse B16-F10 cells assessed as condensed chromatin measured after irradiation with […] light at 10 uM by Hoechst 33342 staining based assay; type: functional, cell-based
B16-F10 [42] = experiment: Induction of apoptosis in mouse B16-F10 cells assessed as late apoptotic cells at 10 uM measured after 8 hrs by annexin VFITC (AV)/propidium iodide (PI) based flow cytometry (reference value: 5.20%); type: functional
B16-F10 [43] = experiment: Cytotoxicity against mouse B16-F10 cells assessed as increase in dead cells by measuring red fluorescence at 10 uM measured after cells irradiated with 100 mW/cm^2, 660 nm light irradiation for 15 mins by Calcein-AM/PI staining based photodynamic therapy (PDT) assay; type: functional, cell-based
B16-F10 [44] = experiment: In vivo antitumor activity against mouse B16-F10 cells transplanted in BALB/c mouse model assessed as tumor growth inhibition at 200 uM administered via intratumoural injection followed by irradiated with 660 nm laser irradiation measured for 7 days; type: functional, organism-based; conditions: route it(Intratumoral), time 7.0 day
B16-F10 [45] = experiment: Cytotoxicity against mouse B16-F10 cells assessed as increase in dead cells by measuring red fluorescence at 10 uM measured after cells irradiated with 100 mW/cm^2, 660 nm light irradiation for 3 to 15 mins by Calcein-AM/PI staining based photodynamic therapy (PDT) assay; type: functional, cell-based; conditions: time 3-15 min
B16-F10 [46] = experiment: Induction of ROS generation in mouse B16-F10 cells assessed as increase in intracellular singlet oxygen by measuring […] fluorescence in nucleus at 10 uM measured co-incubated with SOSG followed by irradiated for 3 to 15 mins; type: functional, cell-based; conditions: time 3-15 min

CN(C)c1ccc2nc3ccc(=[N+](C)C)cc-3sc2c1
Activity (B16-F10 [1]): Active

CN(C)c1ccc2nc3ccc(N(C)C)cc3[s+]c2c1.[Cl-] [METHYLENE BLUE ANHYDROUS]
viability at 10 µM (B16-F10 [2]): 22.5%
Activity (B16-F10 [3]): 0.83%
Activity (B16-F10 [4]): 54.8%
viability at 10 µM (B16-F10 [5]): 33.1%
Activity (B16-F10 [6]): 11.3%

CN(C)c1ccc2c(c1)Sc1cc(N(C)C)ccc1N2C(=O)Nc1ccc(N(CCCl)CCCl)cc1
Activity [7]: 100%
Activity (B16-F10 [8]): Active
Activity [9]: Non-toxic
Stability [10]: Stable
Activity (B16-F10 [11]): Active; Compared With Nm And Mb + Irradiation Group Â?? Compound Showed More Pronounced Effect
Activity [12]: Non-toxic
Activity (B16-F10 [13]): Not active; Compound Showed Only Minimal Green Fluorescence
t1/2 [14]: 11 min
Activity (B16-F10 [15]): Active; Compound Exhibit Strong Activity Relative To Mb+Light Group
fold change (FC) [16]: 69
Activity [17]: Non-toxic
Activity [18]: inactive
fold change (FC) [19]: 113
Activity (B16-F10 [20]): Non-toxic
Activity [21]: inactive
viability at 10 µM (B16-F10 [2]): 9.4%
Activity [22]: inactive
Drug uptake [23]: Active
viability at 10 µM (B16-F10 [24]): 89.2%
Activity (B16-F10 [25]): 62.2%
Activity [26]: inactive
pIC50 (B16-F10 [27]): 5.87
Activity (B16-F10 [3]): 0.45%
Activity [28]: Non-toxic
hemolysis at 2 h, up to 256 µM [29]: < 5%
Activity [30]: Non-toxic
Activity (B16-F10 [31]): Active
Activity [32]: Non-toxic
Activity (B16-F10 [33]): 0.65%
Activity (B16-F10 [34]): Non-toxic
Activity [35]: Active
Activity (B16-F10 [36]): 6.85%
Activity (B16-F10 [37]): Active; Fluorescence Intensity Of Dcfh Within Cells Exhibited A Positive Correlation With The Duration Of Light Exposure
Activity [38]: 97%
Activity (B16-F10 [4]): 44.8%
fold change (FC) [39]: 7
Activity [40]: inactive
viability at 10 µM (B16-F10 [5]): 23.8%
Activity (B16-F10 [41]): Active
Activity (B16-F10 [42]): 3.27%
Activity (B16-F10 [43]): Active; Almost Exclusively Exhibiting Red Fluorescence Signal
Activity (B16-F10 [1]): Active; Effect Is Higher Compared With Nm And Mb Group
Activity (B16-F10 [44]): Active
Activity (B16-F10 [45]): Active
Activity (B16-F10 [46]): Active
Activity (B16-F10 [6]): 30.9%
